For test [1], the target named is T1, Proto-oncogene tyrosine-protein kinase receptor Ret (Homo sapiens, UniProt P07949). Briefly: Inhibition of GST-tagged wild type RET (unknown origin) expressed in Sf9 cells.
The target in test [2] is T2, Proto-oncogene tyrosine-protein kinase receptor Ret (Homo sapiens, UniProt P07949, V804M). Briefly: Inhibition of RET V804M mutant (unknown origin) expressed in Sf9 cells by enzymatic assay.
In test [3] the target is Proto-oncogene tyrosine-protein kinase receptor Ret (Homo sapiens, UniProt P07949, G810A). Briefly: Inhibition of RET G810A mutant (unknown origin).
In test [4] the target is Proto-oncogene tyrosine-protein kinase receptor Ret (Homo sapiens, UniProt P07949, G810D). Briefly: Inhibition of RET G810D mutant (unknown origin).
Test [5] addresses Proto-oncogene tyrosine-protein kinase receptor Ret (Homo sapiens, UniProt P07949, G810S). Briefly: Inhibition of RET G810S mutant (unknown origin).
For test [6], the target named is Proto-oncogene tyrosine-protein kinase receptor Ret (Homo sapiens, UniProt P07949, G810V). Briefly: Inhibition of RET G810V mutant (unknown origin).
The target of test [7] is Proto-oncogene tyrosine-protein kinase receptor Ret (Homo sapiens, UniProt P07949, G810C). Briefly: Inhibition of RET G810C mutant (unknown origin).
Test [8] has as its target Proto-oncogene tyrosine-protein kinase receptor Ret (Homo sapiens, UniProt P07949, G810R). Briefly: Inhibition of RET G810R mutant (unknown origin).
The target of test [9] is Vascular endothelial growth factor receptor 2 (Homo sapiens, UniProt P35968). Briefly: Inhibition of wild type VEGFR2 (unknown origin) expressed in baculovirus infected insect cells using biotinylated-GGGGQDGKDYIVLPI peptide as substrate incubated for 1 to 4 hrs by TRF assay. The arrangement: species or system Insect cell.
Sequence of Vascular endothelial growth factor receptor 2 (P35968 whole entry): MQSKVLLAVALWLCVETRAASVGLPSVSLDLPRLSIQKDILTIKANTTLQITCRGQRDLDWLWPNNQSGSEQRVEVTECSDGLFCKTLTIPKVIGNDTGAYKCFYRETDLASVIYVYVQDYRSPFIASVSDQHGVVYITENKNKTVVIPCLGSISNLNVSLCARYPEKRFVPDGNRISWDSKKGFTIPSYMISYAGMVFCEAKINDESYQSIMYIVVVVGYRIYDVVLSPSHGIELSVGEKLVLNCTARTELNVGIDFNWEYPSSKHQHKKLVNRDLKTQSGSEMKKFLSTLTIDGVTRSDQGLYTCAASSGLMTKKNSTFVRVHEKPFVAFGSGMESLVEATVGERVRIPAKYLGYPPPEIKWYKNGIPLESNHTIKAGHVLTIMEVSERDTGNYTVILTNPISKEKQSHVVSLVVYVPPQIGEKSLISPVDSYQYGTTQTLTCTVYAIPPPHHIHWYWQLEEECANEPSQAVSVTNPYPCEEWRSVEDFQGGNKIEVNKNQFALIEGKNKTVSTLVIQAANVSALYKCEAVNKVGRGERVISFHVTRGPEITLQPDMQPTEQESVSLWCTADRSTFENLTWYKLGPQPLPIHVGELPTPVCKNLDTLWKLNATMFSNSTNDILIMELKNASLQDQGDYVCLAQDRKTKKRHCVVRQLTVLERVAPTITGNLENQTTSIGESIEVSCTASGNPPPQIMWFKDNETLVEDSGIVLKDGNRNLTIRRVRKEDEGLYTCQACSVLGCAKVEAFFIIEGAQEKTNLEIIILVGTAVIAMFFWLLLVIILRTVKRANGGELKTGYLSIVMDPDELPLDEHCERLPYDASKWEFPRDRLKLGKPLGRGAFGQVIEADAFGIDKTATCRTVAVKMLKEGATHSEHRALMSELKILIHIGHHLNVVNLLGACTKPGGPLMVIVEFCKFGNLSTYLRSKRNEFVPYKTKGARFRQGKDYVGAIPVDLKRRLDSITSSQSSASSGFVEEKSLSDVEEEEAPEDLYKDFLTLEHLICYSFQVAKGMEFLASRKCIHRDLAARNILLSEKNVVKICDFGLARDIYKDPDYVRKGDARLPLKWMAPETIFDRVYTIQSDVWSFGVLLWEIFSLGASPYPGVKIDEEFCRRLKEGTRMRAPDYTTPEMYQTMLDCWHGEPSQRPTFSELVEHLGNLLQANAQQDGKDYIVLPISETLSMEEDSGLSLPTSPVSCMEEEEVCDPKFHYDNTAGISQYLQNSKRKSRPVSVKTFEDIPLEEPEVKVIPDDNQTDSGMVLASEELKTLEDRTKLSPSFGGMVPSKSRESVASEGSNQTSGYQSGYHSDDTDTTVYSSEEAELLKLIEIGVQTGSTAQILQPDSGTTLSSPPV
In test [10] the target is T2, Proto-oncogene tyrosine-protein kinase receptor Ret. Briefly: Inhibition of RET V804M mutant (unknown origin) by KINOMEscan assay.
Test [11] has as its target T1, Proto-oncogene tyrosine-protein kinase receptor Ret. Briefly: Inhibition of wild type human RET by KINOMEscan assay.
Test [12] is described as follows: Inhibition of CCDC6-RET (unknown origin).
Test [13] has as its target ALK tyrosine kinase receptor (Homo sapiens, UniProt Q9UM73). Briefly: Inhibition of wild type ALK (unknown origin) by enzymatic assay.
The target of test [14] is T1, Proto-oncogene tyrosine-protein kinase receptor Ret. Briefly: Inhibition of wild type His-tagged human RET by ADP-Glo assay.
Test [15] deals with Proto-oncogene tyrosine-protein kinase receptor Ret (Homo sapiens, UniProt P07949, V804L). Briefly: Inhibition of RET V804L mutant (unknown origin).
The test system of test [16] is Proto-oncogene tyrosine-protein kinase receptor Ret (Homo sapiens), P07949 [S904F]. Briefly: Inhibition of RET S904F mutant (unknown origin) at 1 nM relative to control.
The test system of test [17] is Proto-oncogene tyrosine-protein kinase receptor Ret (Homo sapiens), P07949 [V804L]. Briefly: Inhibition of RET V804L mutant (unknown origin) at 4 nM by enzymatic assay relative to control.
Sequence of Proto-oncogene tyrosine-protein kinase receptor Ret (Homo sapiens), P07949 [V804L] (P07949 whole entry V804L): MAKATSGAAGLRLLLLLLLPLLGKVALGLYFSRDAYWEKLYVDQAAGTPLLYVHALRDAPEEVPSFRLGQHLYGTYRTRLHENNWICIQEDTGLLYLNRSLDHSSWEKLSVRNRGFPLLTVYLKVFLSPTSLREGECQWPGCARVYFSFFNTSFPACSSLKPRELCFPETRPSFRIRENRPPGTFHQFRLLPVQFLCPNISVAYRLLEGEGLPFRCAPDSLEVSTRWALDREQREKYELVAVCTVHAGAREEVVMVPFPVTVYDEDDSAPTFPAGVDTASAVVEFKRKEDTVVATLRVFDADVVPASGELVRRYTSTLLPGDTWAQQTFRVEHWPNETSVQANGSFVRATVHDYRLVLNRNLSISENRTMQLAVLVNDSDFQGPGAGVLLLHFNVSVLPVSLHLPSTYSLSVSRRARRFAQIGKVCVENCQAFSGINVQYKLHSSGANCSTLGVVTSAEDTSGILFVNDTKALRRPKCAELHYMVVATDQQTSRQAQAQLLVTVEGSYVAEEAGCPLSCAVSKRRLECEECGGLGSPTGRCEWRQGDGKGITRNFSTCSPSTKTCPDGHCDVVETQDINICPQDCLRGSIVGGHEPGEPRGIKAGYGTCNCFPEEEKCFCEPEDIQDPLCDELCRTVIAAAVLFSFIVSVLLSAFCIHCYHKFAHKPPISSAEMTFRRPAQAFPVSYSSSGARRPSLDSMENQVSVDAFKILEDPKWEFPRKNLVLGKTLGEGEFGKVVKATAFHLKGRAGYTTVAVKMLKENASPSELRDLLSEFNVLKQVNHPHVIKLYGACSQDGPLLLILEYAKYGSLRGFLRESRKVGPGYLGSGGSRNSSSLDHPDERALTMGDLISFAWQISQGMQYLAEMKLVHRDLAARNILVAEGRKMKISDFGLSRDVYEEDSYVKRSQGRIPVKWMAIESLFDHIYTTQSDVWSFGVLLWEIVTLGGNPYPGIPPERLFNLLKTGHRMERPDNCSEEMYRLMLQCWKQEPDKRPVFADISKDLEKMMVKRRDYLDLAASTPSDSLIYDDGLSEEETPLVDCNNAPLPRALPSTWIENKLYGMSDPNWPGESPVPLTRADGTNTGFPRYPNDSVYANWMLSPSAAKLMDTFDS
A short description of test [18]: Antiproliferative activity against human LC2 cells assessed as reduction in cell growth measured for 48 hrs by MTT assay. It counts as functional, cell-based. The note with it: LC2, 48 h.
The target in test [19] is Coiled-coil domain-containing protein 6/Tyrosine-protein kinase receptor RET (Homo sapiens, UniProt P07949). Briefly: Inhibition of CCDC6-RET (unknown origin). It counts as protein assay.
Test [20] concerns the target T1, Proto-oncogene tyrosine-protein kinase receptor Ret. Briefly: Inhibition of full length His-tagged human recombinant RET expressed in baculovirus infected Sf9 cells.
Test [21] has as its system Proto-oncogene tyrosine-protein kinase receptor Ret (Homo sapiens), P07949 [V804L]. Briefly: Inhibition of RET V804L mutant (unknown origin) at 4 nM relative to control.

A value given as a limit tells only on which side of the number the result lay.

T1 sequence (P07949 whole entry): as the sequence (P07949 whole entry V804L) above, with L804V counted along it
T2 sequence (P07949 29-1114 V804M limits assumed): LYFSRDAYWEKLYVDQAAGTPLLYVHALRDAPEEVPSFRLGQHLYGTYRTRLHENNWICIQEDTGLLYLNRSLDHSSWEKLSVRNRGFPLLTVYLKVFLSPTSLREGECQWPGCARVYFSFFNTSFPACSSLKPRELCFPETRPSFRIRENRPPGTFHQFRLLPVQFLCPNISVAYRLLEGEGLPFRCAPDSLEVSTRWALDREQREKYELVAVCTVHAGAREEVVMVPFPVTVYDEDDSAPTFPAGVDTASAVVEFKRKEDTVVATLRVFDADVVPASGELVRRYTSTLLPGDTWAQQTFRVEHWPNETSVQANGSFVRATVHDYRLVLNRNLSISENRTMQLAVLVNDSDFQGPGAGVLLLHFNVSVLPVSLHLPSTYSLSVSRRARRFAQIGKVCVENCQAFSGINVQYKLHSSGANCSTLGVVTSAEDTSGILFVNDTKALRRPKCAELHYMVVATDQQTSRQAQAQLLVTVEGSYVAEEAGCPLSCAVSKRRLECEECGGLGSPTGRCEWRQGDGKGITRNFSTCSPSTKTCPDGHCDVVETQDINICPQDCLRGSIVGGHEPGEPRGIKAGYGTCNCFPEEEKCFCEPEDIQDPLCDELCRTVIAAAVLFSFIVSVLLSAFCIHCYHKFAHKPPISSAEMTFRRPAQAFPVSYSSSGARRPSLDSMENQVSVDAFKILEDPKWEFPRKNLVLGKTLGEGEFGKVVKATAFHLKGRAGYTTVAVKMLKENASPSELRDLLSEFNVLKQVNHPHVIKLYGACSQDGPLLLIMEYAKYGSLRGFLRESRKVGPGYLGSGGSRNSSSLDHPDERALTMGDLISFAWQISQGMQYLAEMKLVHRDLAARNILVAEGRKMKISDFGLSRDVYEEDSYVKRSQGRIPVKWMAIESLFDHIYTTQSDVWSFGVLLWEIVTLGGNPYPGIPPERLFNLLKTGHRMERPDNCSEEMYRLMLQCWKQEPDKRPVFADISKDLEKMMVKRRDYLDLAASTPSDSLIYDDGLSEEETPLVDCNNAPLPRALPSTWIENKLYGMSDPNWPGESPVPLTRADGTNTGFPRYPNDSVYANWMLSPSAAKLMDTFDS

In the case of `Cc1nc2cnc(N)c(C#Cc3cncc(C(=O)Nc4ccc(CN5CCN(C)CC5)c(C(F)(F)F)c4)c3)c2nc1C`, the IC50 in test [1] came to 1.76 nM; in test [2], 15.1 nM; in test [3] it was 1.88 nM; in test [4], 7.98 nM; in test [5], 10.1 nM; in test [6], 3.6 nM. Also, the IC50 was found to be 11.6 nM in test [7] and 18 nM in test [8].
With `Cn1cc(-c2ccc3c(c2)ncn3-c2ccc(CC(=O)Nc3cc(C(C)(C)C)on3)cc2)cn1`, the IC50 in [9], in test [10] and in test [11] was < 1 nM throughout.
In turn, `CC1(C)c2cc(C3CCN(CC4CCOCC4)CC3)ccc2C(=O)c2c1[nH]c1cc(C#N)ccc21` had a half-maximal inhibitory concentration (IC50) in test [12] of 43.6 nM.
Take `CCc1cc2c(cc1-c1ccn(CCCN(C)C)n1)C(C)(C)c1[nH]c3cc(C#N)ccc3c1C2=O`: the values for the concentration for half-maximal inhibition (IC50) in test [13], in test [14] and in [15] were 0.1 nM, 2 nM and 9 nM, respectively.
For the molecule `CN1CCN(Cc2ccc(NC(=O)c3cncc(C#Cc4cnc(N)c5ncccc45)c3)cc2C(F)(F)F)CC1`, the inhibition in [16] came out at 60%; in test [17], 98%. Further, the 50% inhibitory concentration (IC50) stood at 3 nM in test [18], 3 nM in test [19] and 3.16 nM in test [20].
`Cc1ccc(C(=O)Nc2ccc(CN3CCN(C)CC3)c(C(F)(F)F)c2)cc1C#Cc1cnc(N)c2ncccc12`: the inhibition in test [21] turned out to be 40%.

Source of the values: ChEMBL document CHEMBL5528086, “Unraveling the Promise of RET Inhibitors in Precision Cancer Therapy by Targeting RET Mutations” (J Med Chem, 2024).
